pEC50: −log10 of the molar value. Read-outs that look alike come from different tables or passages of the source.
Key:
Format in all cases: cell-based
SARS-CoV-2 variant Beta [1] = assay: microbe, parasite or virus in culture; conditions: Severe acute respiratory syndrome coronavirus 2, Calu-3, read-out: Antiviral Activity Against SARS-CoV-2 Variants in Calu3 EC50, Beta
[2] = system: SARS-CoV-2 Lineage A (Wa); assay: Antiviral activity against SARS-CoV-2 Lineage A (Wa) in Calu3
SARS-CoV-2 variant Delta = assay: microbe, parasite or virus in culture
SARS-CoV-2 variant Gamma [3] = assay: microbe, parasite or virus in culture
SARS-CoV-2 variant Gamma [4] = assay: microbe, parasite or virus in culture; conditions: for pEC50: read-out: Antiviral Activity Against SARS-CoV-2 Variants in Vero EC50, Gamma; for EC90: read-out: Antiviral Activity Against SARS-CoV-2 Variants in Vero EC90, Gamma
SARS-CoV-2 variant Beta [5] = assay: microbe, parasite or virus in culture; conditions: for pEC50: read-out: Antiviral Activity Against SARS-CoV-2 Variants in Vero EC50, Beta; for EC90: read-out: Antiviral Activity Against SARS-CoV-2 Variants in Vero EC90, Beta
SARS-CoV-2 variant Alpha [6] = assay: microbe, parasite or virus in culture
[7] = system: SARS-CoV-2 Lineage A (Wa); assay: Antiviral activity against SARS-CoV-2 Lineage A (Wa) in Vero; conditions: read-out: Antiviral Activity Against SARS-CoV-2 Variants in Vero EC50, Lineage A (Wa)
[8] = system: SARS-CoV-2 Lineage A (Eng); assay: Antiviral activity against SARS-CoV-2 Lineage A (Eng) in Calu3
SARS-CoV-2 variant Alpha [9] = assay: microbe, parasite or virus in culture; conditions: for pEC50: read-out: Antiviral Activity Against SARS-CoV-2 Variants in Vero EC50, Alpha; for EC90: read-out: Antiviral Activity Against SARS-CoV-2 Variants in Vero EC90, Alpha
[10] = system: SARS-CoV-2 Lineage A (Eng); assay: Antiviral activity against SARS-CoV-2 Lineage A (Eng) in Vero; conditions: for pEC50: read-out: Antiviral Activity Against SARS-CoV-2 Variants in Vero EC50, Lineage A (Eng); for EC90: read-out: Antiviral Activity Against SARS-CoV-2 Variants in Vero EC90, Lineage A (Eng)
[11] = Severe acute respiratory syndrome coronavirus 2, Vero
[12] = Severe acute respiratory syndrome coronavirus 2, Gamma, Vero
[13] = Severe acute respiratory syndrome coronavirus 2, Beta, Vero
[14] = Severe acute respiratory syndrome coronavirus 2, Alpha, Vero
[15] = Severe acute respiratory syndrome coronavirus 2, Lineage A (Eng), Vero

## O=c1ccn([C@@H]2S[C@H](CO)[C@@H](O)[C@H]2O)c(=O)[nH]1 [Compound 8, 1-((2R,3R,4S,5R)-3,4-dihydroxy-5-(hydroxymethyl)tetrahydrothiophen-2-yl)pyrimidine-2,4(1H,3H)-dione]
SARS-CoV-2 variant Beta [1]
  pEC50: 5.96
[2]; Severe acute respiratory syndrome coronavirus 2, Calu-3, read-out: Antiviral Activity Against SARS-CoV-2 Variants in Calu3 EC50, Lineage A (Wa)
  pEC50: 7.00
[2]; Severe acute respiratory syndrome coronavirus 2, Calu-3, read-out: Antiviral Activity Against SARS-CoV-2 Variants in Calu3 EC90, Lineage A (Wa)
  EC90: 400 nM
SARS-CoV-2 variant Delta; Severe acute respiratory syndrome coronavirus 2, Calu-3, read-out: Antiviral Activity Against SARS-CoV-2 Variants in Calu3 EC50, Delta
  pEC50: 5.74
SARS-CoV-2 variant Delta; Severe acute respiratory syndrome coronavirus 2, Calu-3, read-out: Antiviral Activity Against SARS-CoV-2 Variants in Calu3 EC90, Delta
  EC90: 3600 nM
SARS-CoV-2 variant Gamma [3]; Severe acute respiratory syndrome coronavirus 2, Calu-3, read-out: Antiviral Activity Against SARS-CoV-2 Variants in Calu3 EC50, Gamma
  pEC50: 7.40
SARS-CoV-2 variant Gamma [3]; Severe acute respiratory syndrome coronavirus 2, Calu-3, read-out: Antiviral Activity Against SARS-CoV-2 Variants in Calu3 EC90, Gamma
  EC90: 100 nM
SARS-CoV-2 variant Gamma [4]; [11]
  pEC50: 6.70
  EC90: 300 nM
SARS-CoV-2 variant Beta [5]; [11]
  pEC50: 6.10
  EC90: 1000 nM
SARS-CoV-2 variant Alpha [6]; Severe acute respiratory syndrome coronavirus 2, Calu-3, read-out: Antiviral Activity Against SARS-CoV-2 Variants in Calu3 EC50, Alpha
  pEC50: 6.52
[7]; [11]
  pEC50: 6.10
[8]; Severe acute respiratory syndrome coronavirus 2, Calu-3, read-out: Antiviral Activity Against SARS-CoV-2 Variants in Calu3 EC90, Lineage A (Eng)
  EC90: 4500 nM
SARS-CoV-2 variant Alpha [9]; [11]
  pEC50: 6.52
  EC90: 1400 nM
[10]; [11]
  pEC50: 6.70
  EC90: 400 nM

## CCC(CC)COC(=O)[C@H](C)N[P@](=O)(OC[C@H]1O[C@@](C#N)(c2ccc3c(N)ncnn23)[C@H](O)[C@@H]1O)Oc1ccccc1 [Remdesivir, reference compound]
[2]; Severe acute respiratory syndrome coronavirus 2, Calu-3, Lineage A (Wa), Calu3, read-out: Antiviral Activity Against SARS-CoV-2 Variants in Calu3 EC50, Lineage A (Wa)
  pEC50: 7.00
[2]; Severe acute respiratory syndrome coronavirus 2, Calu-3, Lineage A (Wa), Calu3, read-out: Antiviral Activity Against SARS-CoV-2 Variants in Calu3 EC90, Lineage A (Wa)
  EC90: 400 nM
SARS-CoV-2 variant Delta; Severe acute respiratory syndrome coronavirus 2, Calu-3, Delta, Calu3, read-out: Antiviral Activity Against SARS-CoV-2 Variants in Calu3 EC50, Delta
  pEC50: 6.52
SARS-CoV-2 variant Delta; Severe acute respiratory syndrome coronavirus 2, Calu-3, Delta, Calu3, read-out: Antiviral Activity Against SARS-CoV-2 Variants in Calu3 EC90, Delta
  EC90: 2300 nM
SARS-CoV-2 variant Gamma [3]; Severe acute respiratory syndrome coronavirus 2, Calu-3, Gamma, Calu3, read-out: Antiviral Activity Against SARS-CoV-2 Variants in Calu3 EC50, Gamma
  pEC50: 6.59
SARS-CoV-2 variant Gamma [3]; Severe acute respiratory syndrome coronavirus 2, Calu-3, Gamma, Calu3, read-out: Antiviral Activity Against SARS-CoV-2 Variants in Calu3 EC90, Gamma
  EC90: 300 nM
SARS-CoV-2 variant Gamma [4]; [12]
  pEC50: 6.52
  EC90: 2100 nM
SARS-CoV-2 variant Beta [5]; [13]
  pEC50: 5.96
  EC90: 2200 nM
SARS-CoV-2 variant Alpha [6]; Severe acute respiratory syndrome coronavirus 2, Calu-3, Alpha, Calu3, read-out: Antiviral Activity Against SARS-CoV-2 Variants in Calu3 EC50, Alpha
  pEC50: 6.52
SARS-CoV-2 variant Alpha [6]; Severe acute respiratory syndrome coronavirus 2, Calu-3, Alpha, Calu3, read-out: Antiviral Activity Against SARS-CoV-2 Variants in Calu3 EC90, Alpha
  EC90: 400 nM
[7]; Severe acute respiratory syndrome coronavirus 2, Lineage A (Wa), Vero
  pEC50: 6.70
[8]; Severe acute respiratory syndrome coronavirus 2, Calu-3, Lineage A (Eng), Calu3, read-out: Antiviral Activity Against SARS-CoV-2 Variants in Calu3 EC50, Lineage A (Eng)
  pEC50: 7.70
[8]; Severe acute respiratory syndrome coronavirus 2, Calu-3, Lineage A (Eng), Calu3, read-out: Antiviral Activity Against SARS-CoV-2 Variants in Calu3 EC90, Lineage A (Eng)
  EC90: 300 nM
SARS-CoV-2 variant Alpha [9]; [14]
  pEC50: 6.40
  EC90: 1600 nM
[10]; [15]
  pEC50: 6.52
  EC90: 2900 nM
